Laboratory results reported in BindingDB's records for doi:10.1097/00004424-198809001-00017 (Unit&Eacute, 1988).
pKi: −log10 of the molar value.

Tests used:
[1] = target: Histamine H3 receptor (Cavia porcellus, UniProt Q9JI35)
[2] = target: Hrh3 protein (Rattus norvegicus, UniProt Q5PPG3)
Sequence of Hrh3 protein (Q5PPG3 whole entry): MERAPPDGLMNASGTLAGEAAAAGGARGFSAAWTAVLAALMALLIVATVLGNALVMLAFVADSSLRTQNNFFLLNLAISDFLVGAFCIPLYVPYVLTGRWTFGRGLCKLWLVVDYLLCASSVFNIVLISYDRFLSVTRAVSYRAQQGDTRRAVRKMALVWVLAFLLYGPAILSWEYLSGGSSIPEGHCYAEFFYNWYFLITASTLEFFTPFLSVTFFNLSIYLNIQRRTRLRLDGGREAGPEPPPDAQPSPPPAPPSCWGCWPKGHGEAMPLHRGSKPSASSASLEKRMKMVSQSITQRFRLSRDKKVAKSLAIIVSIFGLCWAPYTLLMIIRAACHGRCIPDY

Sequence of Histamine H3 receptor (Q9JI35 whole entry): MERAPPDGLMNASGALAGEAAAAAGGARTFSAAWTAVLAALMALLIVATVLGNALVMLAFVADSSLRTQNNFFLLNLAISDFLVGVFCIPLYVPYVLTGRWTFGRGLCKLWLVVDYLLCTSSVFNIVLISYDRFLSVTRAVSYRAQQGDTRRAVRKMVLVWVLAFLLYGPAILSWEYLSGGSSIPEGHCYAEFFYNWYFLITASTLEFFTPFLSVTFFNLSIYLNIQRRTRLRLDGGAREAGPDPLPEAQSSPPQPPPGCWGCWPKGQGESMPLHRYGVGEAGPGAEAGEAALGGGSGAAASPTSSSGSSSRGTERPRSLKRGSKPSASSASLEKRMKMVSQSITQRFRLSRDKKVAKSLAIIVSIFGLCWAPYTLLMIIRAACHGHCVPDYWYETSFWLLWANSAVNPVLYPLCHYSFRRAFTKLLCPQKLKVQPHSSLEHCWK

Compound	pKi [1]	pKi [2]
C[C@@H](N)Cc1c[nH]cn1	6.09	
S=C(NC1CCCCC1)N1CCC(c2cnc[nH]2)CC1	8.70	8.68
c1ncc(CCN2CCCC2)[nH]1 [4-[2-(1-Pyrrolidinyl)ethyl]-imidazole]	8.22	
C[C@H](N)Cc1c[nH]cn1 [CAS_75614-93-6]	7.28	7.96
NCCc1c[nH]cn1 [[3H]histamine]	7.00	7.00
